Reference: ChEMBL document CHEMBL1142094, “Effects of glutathione and ascorbic acid on streptomycin sensitivity of Escherichia coli” (2007)
Converted amounts (≈) assume the structure as drawn. The source made the active and inactive calls. The calls are words filed in the database; no cut-off is given here.

Experiments:
Escherichia coli [1] = assay: Susceptibility of Escherichia coli K12 MG1655 in presence of 10 mM glutathione by agar dilution method relative to control; type: functional
Escherichia coli [2] = assay: Susceptibility of Escherichia coli K12 MG1655 by agar dilution method; type: functional
Escherichia coli [3] = assay: Increase in ROS levels in Escherichia coli K12 MG1655 assessed as ratio of ROS with antibiotic to ROS without antibiotic; type: functional
Escherichia coli [4] = assay: Antibacterial activity against Escherichia coli K12 XL1 Blue; type: functional
Escherichia coli [5] = assay: Antibacterial activity against Escherichia coli K12 W3110; type: functional
Escherichia coli [6] = assay: Decrease in sensitivity of Escherichia coli K12 MG1655 assessed as reduction in zone of inhibition in presence of 10 mM ascorbic acid by disk diffusion method; type: functional, organism-based
Escherichia coli [7] = assay: Decrease in sensitivity of Escherichia coli K12 MG1655 assessed as reduction in zone of inhibition in presence of 10 mM glutathione by disk diffusion method; type: functional, organism-based
Escherichia coli [8] = assay: Antibacterial activity against Escherichia coli K12 DH5alpha in presence of 10 mM ascorbic acid; type: functional
Escherichia coli [9] = assay: Antibacterial activity against Escherichia coli K12 XL1 Blue in presence of 10 mM ascorbic acid; type: functional
Escherichia coli [10] = assay: Antibacterial activity against Escherichia coli K12 W3110 in presence of 10 mM ascorbic acid; type: functional
Escherichia coli [11] = assay: Antibacterial activity against Escherichia coli K12 MG1655 in presence of ascorbic acid by agar dilution method relative to control; type: functional
Escherichia coli [12] = assay: Antibacterial activity against Escherichia coli K12 DH5alpha; type: functional

Compound: O=C(N[C@H](CO)[C@H](O)c1ccc([N+](=O)[O-])cc1)C(Cl)Cl [CHLORAMPHENICOL]
- MIC (Escherichia coli [1]): 4 µg/mL
- MIC (Escherichia coli [2]): 8 µg/mL (≈ 24.8 µM)

Compound: O=C(O)c1cn(C2CC2)c2cc(N3CCNCC3)c(F)cc2c1=O [CIPROFLOXACIN]
- Ratio (Escherichia coli [3]): 1.1

Compound: NC[C@H]1O[C@H](O[C@H]2[C@H](O)[C@@H](O[C@H]3O[C@H](CO)[C@@H](O)[C@H](N)[C@H]3O)[C@H](N)C[C@@H]2N)[C@H](O)[C@@H](O)[C@@H]1O [KANAMYCIN]
- MIC (Escherichia coli [1]): > 250 µg/mL
- MIC (Escherichia coli [2]): 6 µg/mL (≈ 12.4 µM)
- Ratio (Escherichia coli [3]): 0.87

Compound: CC1=CC(=O)c2ccccc2C1=O [MENADIONE]
- Ratio (Escherichia coli [3]): 2.02

Compound: CN[C@@H]1[C@H](O)[C@H](NC)[C@H]2O[C@@]3(O)C(=O)C[C@@H](C)O[C@H]3O[C@@H]2[C@H]1O [SPECTINOMYCIN]
- MIC (Escherichia coli [1]): > 300 µg/mL
- MIC (Escherichia coli [2]): 20 µg/mL (≈ 60.2 µM)

Compound: CN[C@@H]1[C@H](O[C@H]2[C@H](O[C@H]3[C@H](O)[C@@H](O)[C@H](N=C(N)N)[C@@H](O)[C@@H]3N=C(N)N)O[C@@H](C)[C@]2(O)C=O)O[C@@H](CO)[C@H](O)[C@H]1O [STREPTOMYCIN]
- MIC (Escherichia coli [4]): 4 µg/mL (≈ 6.88 µM)
- MIC (Escherichia coli [1]): > 250 µg/mL
- MIC (Escherichia coli [5]): 4 µg/mL (≈ 6.88 µM)
- Activity (Escherichia coli [6]): Active
- Activity (Escherichia coli [7]): Active
- MIC (Escherichia coli [8]): > 8 µg/mL
- MIC (Escherichia coli [9]): > 8 µg/mL
- MIC (Escherichia coli [10]): > 8 µg/mL
- MIC (Escherichia coli [11]): 20 µg/mL
- MIC (Escherichia coli [12]): 4 µg/mL (≈ 6.88 µM)
- MIC (Escherichia coli [2]): 8 µg/mL (≈ 13.8 µM)
- Ratio (Escherichia coli [3]): 0.78

Compound: CN(C)[C@@H]1C(O)=C(C(N)=O)C(=O)[C@@]2(O)C(O)=C3C(=O)c4c(O)cccc4[C@@](C)(O)[C@H]3C[C@@H]12 [TETRACYCLINE]
- MIC (Escherichia coli [1]): 4 µg/mL
- MIC (Escherichia coli [2]): 4 µg/mL (≈ 9 µM)
- Ratio (Escherichia coli [3]): 0.96

Compound: GENTAMICIN
- MIC (Escherichia coli [1]): > 200 µg/mL
- MIC (Escherichia coli [2]): 2 µg/mL
- Ratio (Escherichia coli [3]): 1
